In publication PMC11887051, “Discovery of ONO-2920632 (VU6011887): A Highly Selective and CNS Penetrant TREK-2 (TWIK-Related K+ Channel 2) Preferring Activator In Vivo Tool Compound” (ACS Chemical Neuroscience, 2025):

Experiments:
TREK-2 = target: T1, TREK-2 (Homo sapiens, UniProt P57789); assay: TREK-2 thallium flux assay (hTREK-2/HEK); type: cell-based; design: expressed in transfected cells; host or cells: HEK293; conditions: for Emax: % activation relative to 10 µM BL-1249; for Fold TREK-2: TREK-2 preference over TREK-1, thallium flux
T1 sequence (P57789 1-538): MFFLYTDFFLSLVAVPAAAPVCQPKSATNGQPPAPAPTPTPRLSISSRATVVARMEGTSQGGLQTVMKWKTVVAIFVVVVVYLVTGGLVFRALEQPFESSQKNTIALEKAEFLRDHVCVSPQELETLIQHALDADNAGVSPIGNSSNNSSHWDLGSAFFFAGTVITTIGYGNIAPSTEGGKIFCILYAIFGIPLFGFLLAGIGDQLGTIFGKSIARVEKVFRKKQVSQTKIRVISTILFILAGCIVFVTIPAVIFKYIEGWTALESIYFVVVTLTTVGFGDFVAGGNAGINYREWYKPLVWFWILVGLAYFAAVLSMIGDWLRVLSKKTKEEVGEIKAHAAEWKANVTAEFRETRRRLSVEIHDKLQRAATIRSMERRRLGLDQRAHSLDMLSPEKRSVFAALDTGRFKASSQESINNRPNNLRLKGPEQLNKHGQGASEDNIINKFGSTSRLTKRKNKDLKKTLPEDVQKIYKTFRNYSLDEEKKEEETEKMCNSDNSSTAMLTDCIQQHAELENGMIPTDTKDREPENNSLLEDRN
Procedure: Procedures for Biological Experiments
TREK-1 and TREK-2 thallium flux assay protocol […]
HEK293 cells stably expressing human TREK-2 (hTREK-2/HEK) were constructed at Ono. hTREK-1/CHO or hTREK-2/HEK were plated in 384-well plates at a density of 1.0x10^4 cells/well or 2.0x10^4 cells/well, respectively, and cultured overnight. After the wash by HBSS + 20 mM HEPES buffer, cells were loaded with Thallos dye for 1 hour at room temperature. After the wash […]
dissolved with HBSS + 20mM HEPES buffer were added to each well. After 10 minutes incubation at room temperature, thallium stimulus buffer were added to each well and the fluorescent intensity are measured by Panoptic. The final thallium concentration was 0.36 mM in […]
TREK-1 or 0.24 mM in TREK-2, respectively. […]

[1] = rat plasma protein binding (equilibrium dialysis); type: in vitro ADME; conditions: pH 7.4, read-out: rat plasma fu
Procedure: (§1) In vitro Plasma protein binding and Brain homogenate binding: Determination of fraction unbound (f u) in plasma was conducted in vitro via equilibrium dialysis using HTDialysis (HTD) membrane plates. The top half of the plate was filled with 100 uL of Dubelco’s Phosphate Buffered Saline, pH 7.4 (DPBS). Compounds were diluted into plasma from each species (5 µM final concentration), which was aliquoted in triplicate to the ‘bottom half’ of the prepared HTD plate wells. The HTD plate was sealed and incubated for 6 hours at 37 °C. Following incubation, each well (both top and bottom halves) were transferred (20 µL) to the corresponding wells of a 96-shallow-well (V-bottom) plate. The daughter plates were then matrix-matched (DPBS side wells received equal volume of plasma, and plasma side wells received equal volume of DPBS), and extraction solution (120 µL; acetonitrile containing 50 nM carbamazepine as IS) was added to all wells of both daughter plates to precipitate protein and extract test article. The plates were then sealed and centrifuged (3500 rcf) for 10 minutes at ambient temperature. Supernatant (60 µL) from each well of the daughter plates was then transferred to the corresponding wells of new daughter plates (96-shallow-well, V bottom) containing water (Milli-Q, 60 µL/well), and the plates were sealed in preparation for LC-MS/MS analysis (see LC-MS/MS analysis method below).
(§2) The unbound fraction (f u) was calculated following the equation below, and mean values for each species were calculated from 3 replicates. […]
(§3) Fraction unbound for both plasma and brain samples was determined using Equation 4.
(§4) Equation 4 Determination of fraction unbound in plasma. […]

[2] = mouse plasma protein binding; type: in vitro ADME; conditions: pH 7.4, read-out: mouse plasma fu
Procedure: as §1, §2, §3, §4

mouse TREK-2 = target: T2, mouse TREK-2 (Mus musculus, UniProt Q8BUW1); assay: mouse TREK-2 MPC assay; type: cell-based; conditions: for TREK-2 preference (mouse MPC): TREK-2 over TREK-1, mouse MPC; for EC50 / Emax: mouse, manual patch clamp
T2 sequence (Q8BUW1 1-535): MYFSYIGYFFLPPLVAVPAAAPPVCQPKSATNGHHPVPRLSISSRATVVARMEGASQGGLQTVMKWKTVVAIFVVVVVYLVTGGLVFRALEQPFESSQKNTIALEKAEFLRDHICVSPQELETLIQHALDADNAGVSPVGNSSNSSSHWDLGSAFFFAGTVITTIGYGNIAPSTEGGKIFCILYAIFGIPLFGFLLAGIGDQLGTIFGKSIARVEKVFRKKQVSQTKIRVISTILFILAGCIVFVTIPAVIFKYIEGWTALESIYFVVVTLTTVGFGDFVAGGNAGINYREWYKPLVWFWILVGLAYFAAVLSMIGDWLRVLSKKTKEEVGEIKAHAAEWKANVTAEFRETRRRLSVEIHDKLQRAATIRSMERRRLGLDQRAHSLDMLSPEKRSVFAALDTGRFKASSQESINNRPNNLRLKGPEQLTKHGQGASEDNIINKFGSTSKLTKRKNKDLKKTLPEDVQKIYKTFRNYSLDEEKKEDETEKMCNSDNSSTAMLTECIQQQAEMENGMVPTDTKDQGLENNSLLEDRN

For `CS(=O)(=O)Nc1ccc(C(=O)NCc2ccc(Cl)cc2Cl)cc1` [Compound 13], the EC50 (TREK-2) was 3200 nM, the Emax (TREK-2) was 155% and the “Fold TREK-2” value (TREK-2) was roughly 3 fold. It also gave a fraction unbound at 6 h, 5 µM [1] of 0.027.

For `O=C(NCc1ccc(OC(F)(F)F)cc1F)c1ccc2ncnn2c1` [Compound 19b], the fraction unbound at 6 h, 5 µM [2] was 0.24, the EC50 (TREK-2) was 300 nM and the Emax (TREK-2) was 184%. For the same molecule, the “Fold TREK-2” value (TREK-2) was 9.3 fold, the fraction unbound at 6 h, 5 µM [1] was 0.075 and the “TREK-2 preference (mouse MPC)” value (mouse TREK-2) was 4.7 fold. For the same molecule, the EC50 (mouse TREK-2) was 570 nM and the Emax (mouse TREK-2) was 105%.

Molecule `O=C(NCc1ccc(Br)cc1Cl)c1ccc(-c2ncn[nH]2)cc1` [Compound 14a] has a fraction unbound at 6 h, 5 µM [2] of 0.022, an EC50 (TREK-2) of 730 nM and an Emax (TREK-2) of 183%. The EC50 (mouse TREK-2) was 610 nM and the Emax (mouse TREK-2) was 97%.

Work on `Cc1cc(OC(F)(F)F)ccc1CNC(=O)c1ccc2ncnn2c1` [Compound 19a] yielded a fraction unbound at 6 h, 5 µM [2] of 0.1, an EC50 (TREK-2) of 150 nM and an Emax (TREK-2) of 160%. For the same molecule, the “Fold TREK-2” value (TREK-2) was 25.3 fold, the fraction unbound at 6 h, 5 µM [1] was 0.075 and the “TREK-2 preference (mouse MPC)” value (mouse TREK-2) was 33 fold. For the same molecule, the EC50 (mouse TREK-2) was 150 nM and the Emax (mouse TREK-2) was 105%.
